Reference: patent publication US20200237705A1, “METHOD TO TREAT ANTIMICROBIAL RESISTANT CANDIDA” (Hennepin Life Sciences, LLC, priority 2017, published 2020)

Tests used:
[1] = tested on: C. albicans, C. glabrata, C. krusei, C. parapsilosis, and C. pseudotropicalis; settings: in vitro; Strandberg et al. 2010; cited from earlier work
Candida = settings: women of menstrual age; Strandberg et al. 2010; cited from earlier work
C. auris = assay: Killing of C. auris clinical isolates by GML alone in Todd Hewitt growth medium (plate counts); type: cell-based, Candida auris; settings: two clinical isolates, 37° C., by 8 hours' incubation, limit of detection 10 CFUs/ml
Description: In a first study performed was to test the ability of GML alone to kill two recent clinical isolates of C. auris (FIG. 1). […] The lower limit of detection of Candida is 10 CFUs/ml for these studies.

In the case of Glycerol monolaurate [GML], the “Ability to kill selected Candida species” value [1] is listed as “ability to kill selected Candida species”, the “Numbers of Candida vaginally in women” value (Candida) is listed as “can reduce the numbers of Candida vaginally” and the “GML concentrations at which C. auris is killed (significant killing defined as ≥3 logs killing)” value (C. auris) is listed as no less than 50 μg/ml.
